According to PMC6108078 (Chemical research in toxicology, 2018):
Several values for one entry are separate records, joined by “and”; a condition that tells them apart may be missing. Identical values can stand only once. Like-named read-outs stand apart in the source and are kept apart here.

What was measured:
[1] = cited from earlier work
P450 3A4 = P450 3A4 (Homo sapiens, UniProt P08684); test: Kinetics of sunitinib metabolite formation by recombinant P450 3A4; format: in vitro ADME; settings: sunitinib N-deethylation (M1 formation), recombinant enzymes
[2] = format: in vitro ADME, human
[3] = mass balance studies in humans; cited from earlier work
[4] = monkeys administered [14C]sunitinib L-malate; ref sunitinib NDA document, 9; cited from earlier work
[5] = for decrease of M5 formation compared to vehicle control: furafylline 25 μM, quinidine 2 μM
[6] = patients taking sunitinib; cited from earlier work
HepG2 cells = settings: treatment of HepG2 cells; cited from earlier work
[7] = GSH trapping in pooled human liver microsomes; format: in vitro ADME; settings: microsomal incubations in the absence of NADPH supplementation
[8] = in the absence of dGSH, sunitinib 25 μM, 1 mg/mL, 30 min
[9] = in the presence of dGSH (1 mM), sunitinib 25 μM, 1 mg/mL, 30 min
[10] = sunitinib 10 μM, 0.1 mg/mL, GSH 5 mM, 10 min, ketoconazole 1 μM, CYP3cide 2 μM, mean ± SD, n = 3

Sequence of P450 3A4 (P08684 whole entry): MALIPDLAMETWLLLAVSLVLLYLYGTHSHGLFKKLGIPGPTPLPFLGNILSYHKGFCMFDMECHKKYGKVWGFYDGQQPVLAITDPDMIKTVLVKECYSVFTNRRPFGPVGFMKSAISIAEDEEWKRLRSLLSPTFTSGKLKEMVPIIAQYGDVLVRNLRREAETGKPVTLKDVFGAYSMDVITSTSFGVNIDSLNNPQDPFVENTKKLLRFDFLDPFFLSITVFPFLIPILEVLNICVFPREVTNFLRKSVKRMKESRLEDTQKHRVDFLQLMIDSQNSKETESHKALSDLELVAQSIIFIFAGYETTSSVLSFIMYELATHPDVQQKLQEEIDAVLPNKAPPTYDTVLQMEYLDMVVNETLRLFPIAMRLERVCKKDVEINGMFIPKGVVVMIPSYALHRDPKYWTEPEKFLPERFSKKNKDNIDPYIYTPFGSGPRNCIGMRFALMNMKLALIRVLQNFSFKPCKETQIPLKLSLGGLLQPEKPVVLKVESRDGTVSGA

CCNCCNC(=O)c1c(C)[nH]c(/C=C2\C(=O)Nc3ccc(F)cc32)c1C [M1, N-desethylsunitinib]
activity relative to parent drug [1]: equal to that of the parent drug | fold higher efficiency (kcat/Km) of P450 3A4 compared to P450 1A2 (P450 3A4): ~5 fold | M1 share of the metabolic turnover of sunitinib [2, 8]: 70% | ratio of M1 to sunitinib UV peak area [2, 8]: 0.70 | M1 share of the metabolic turnover of sunitinib [2, 9]: 41% | ratio of M1 to sunitinib (UV peak area at 420–440 nm) [2, 9]: 0.41 | M1 share of sunitinib metabolic turnover in human liver microsomes ([2]; summary statement in discussion): ≥ 41% | fold higher M1 levels in the absence of dGSH compared to in the presence of dGSH ([2]; sunitinib 25 μM, 1 mg/mL, 30 min, UV absorbance peak area at 430 nm, n = 2-3): 2.5 fold | share of the total dose [3]: 32–52% | share of the total radioactivity recovered in feces [4]: 20–40%

Cc1nc2c([nH]1)c(=O)n(C)c(=O)n2Cc1ccco1 [furafylline]
decrease of M5 formation compared to vehicle control [5, 10]: 62% and 62 ± 17%

CC(=O)N1CCN(c2ccc(OCC3COC(Cn4ccnc4)(c4ccc(Cl)cc4Cl)O3)cc2)CC1 (centres unmarked) [ketoconazole]
decrease of M5 formation compared to vehicle control [5, 10]: 52 ± 4% | decrease of M1 levels compared to vehicle control [5, 10]: 88% and 88 ± 5% | decrease of M3 levels compared to control [5, 10]: 40 ± 9%

CCN(CC)CCNC(=O)c1c(C)[nH]c(/C=C2\C(=O)Nc3ccc(F)cc32)c1C [sunitinib]
occurrence of clinically significant liver injury [6]: 3–4 % of patients | occurrence of liver failure [6]: 0.3 % of patients | hepatocellular toxicity effects (HepG2 cells): increase the production of reactive oxygen species, disrupt the mitochondrial membrane potential, deplete glutathione content, and induce apoptosis in a concentration-dependent manner | direct GSH conjugation of parent drug (Sun–SG) [7]: evidence for the direct conjugation of GSH to the parent drug

O=c1cc(-c2ccccc2)oc2c1ccc1ccccc12 [α-naphthoflavone]
effect on formation of M3 and M5 ([5]; initial experiments, coincubation with sunitinib, data not shown): significantly increased | increase of M3 levels compared to control ([5]; sunitinib 10 μM, 0.1 mg/mL, GSH 5 mM, 10 min, α-naphthoflavone 1 μM, mean ± SD, n = 3): 41 ± 17%
